Source: PMC7318222, “A Family of Water‐Immiscible, Dipolar Aprotic, Diamide Solvents from Succinic Acid” (Chemsuschem, 2020)

Experiments:
PPARδ = biological target: T1, PPARδ (Homo sapiens, UniProt Q03181); assay: PPARδ CALUX reporter gene assay; format: cell-based; parameters: key: –: no effect observed up to the highest test concentration; details: PC10, 24 h exposure
T1 construct: expression construct for the full-length human receptor under investigation; expressed in transfected cells; host or cells: human U2-OS cells (ATCC HTB-96), stably transfected
T1 sequence (Q03181 1-441): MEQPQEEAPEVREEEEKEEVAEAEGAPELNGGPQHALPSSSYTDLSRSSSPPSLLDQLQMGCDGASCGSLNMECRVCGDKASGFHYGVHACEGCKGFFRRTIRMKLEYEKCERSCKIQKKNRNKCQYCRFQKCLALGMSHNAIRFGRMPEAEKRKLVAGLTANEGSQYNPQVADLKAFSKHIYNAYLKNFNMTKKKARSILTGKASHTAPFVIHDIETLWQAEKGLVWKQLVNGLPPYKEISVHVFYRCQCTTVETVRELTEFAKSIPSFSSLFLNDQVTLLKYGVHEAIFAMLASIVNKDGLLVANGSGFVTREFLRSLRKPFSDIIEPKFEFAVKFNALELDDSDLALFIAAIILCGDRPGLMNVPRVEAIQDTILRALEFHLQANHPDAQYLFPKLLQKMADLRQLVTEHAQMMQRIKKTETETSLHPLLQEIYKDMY
Source text: nitroaniline ≥98.0% was purchased from Alfa Aeser. Cyrene was supplied by Circa group. N-butylpyrrolidinone was supplied by Eastman chemicals. […]
Polyarylethersulfone of 55,000 Da were obtained from INGE.BASF, Germany. The CALUX cell lines have been described previously.[1] They are based on human U2-OS cells (ATCC, HTB-96) stably transfected with an expression construct for the full-length human receptor under investigation, and a reporter construct consisting of multimerized responsive elements for the cognate receptor coupled to a minimal promoter element (TATA) and a luciferase gene. Cells were maintained as described previously,[2] using cell culture media and supplements from Fisher Scientific as described in the experimental procedures section. […]
(§1) In vitro reporter gene assays
(§2) The automated CALUX assays were carried out similarly as described earlier,[12] with some adaptations. In brief, the assay was performed in CO2 independent medium (Fisher Scientific, […]
(§3) with 30 µl cell suspension/well. After 24 h, exposure medium was prepared. A dilution series in 0.5log unit increments of each test compound (in DMSO) was added to a 96-wells plate containing assay medium (2% v/v). Of this exposure mixture, 30 µl was added to the assay plates containing the CALUX cells, resulting in a final DMSO concentration of 1%. Additionally, DMSO blanks and a full dose response curve of the relevant reference compound were included on each plate. All samples were tested in triplicate. The preparation of the compound dilution series as well as the exposure of the cells were performed on a Hamilton StarLET liquid handling robot coupled to a Cytomat incubator.
Directly after exposure, plates were sealed with non-breathing plate seals (Plate sealer, easy seal […]
After 24 h the exposure medium was removed using an EL406 washer-dispenser (BioTek) and 10 µl/well triton lysisbuffer was added by the EL406.
(§4) Subsequently, the luciferase signal was measured in a luminometer (InfinitePro coupled to a Connect Stacker, both TECAN). In order to be able to detect receptor antagonism, several assays were also performed in antagonistic mode. The assay procedure was as described above, with the only exception that the EC50 concentration of the reference agonist was present during the exposure.
The luminometer data was analysed as follows; the average of the triplicate wells was determined, […]

ESRE = ESRE CALUX assay (unfolded protein response); format: cell-based, human; parameters: key: –: no effect observed up to the highest test concentration; details: cell signaling pathway assay, 24 h exposure
Source text: Six of the CALUX assays (TCF through p53) detect activation of several cellular signaling pathways, which are indicative of general stress and acute toxicity, but also a range of more specific types of toxicity, including reproductive toxicity. […]
2-methylimidazole 99.0%, zinc(II) nitrate hexahydrate ≥99.0%, para-cymene 99.0%, 1,4-dioxane 99.8% (anhydrous), 4-nitroaniline ≥99.0%, 1-octanol ≥99.0%, diglyme ≥99.0%, DMSO-d6 (99.8% D) and chloroform-d (99.8% D) were purchased from Sigma-Aldrich. Toluene ≥99.0%, hexane ≥99.5%, DCM ≥99.5%, chloroform ≥99.5%, DMSO ≥99.0% were purchased from VWR. N,N-diethyl-4-nitroaniline ≥98.0% was purchased from Alfa Aeser. Cyrene was supplied by Circa group. N-butylpyrrolidinone was supplied by Eastman chemicals. N,N-dimethylformamide 99.9% and N,N-dimethylacetamide 99.9% were purchased from Fischer. The flakes of Ultrason® E3020 P Polyarylethersulfone of 55,000 Da were obtained from INGE.BASF, Germany. The CALUX cell lines have been described previously.[1] They are based on human U2-OS cells (ATCC, HTB-96) stably transfected with an expression construct for the full-length human receptor under investigation, and a reporter construct consisting of multimerized responsive elements for the cognate receptor coupled to a minimal promoter element (TATA) and a luciferase gene. Cells were maintained as described previously,[2] using cell culture media and supplements from Fisher Scientific as described in the experimental procedures section. […]
as §1, §2
as §3, with “supplement (Fisher Scientific, 11574466), 10 U/mL penicillin and 10 µg/mL streptomycin. A cell suspension in assay medium was made of 1 × 10^5cells/mL, and white 384-wells plates were seeded with” for “with”
Directly after exposure, plates were sealed with non-breathing plate seals (Plate sealer, easy seal transparent; Greiner-Bio-One, 676001). After 24 h the exposure medium was removed using an EL406 washer-dispenser (BioTek) and 10 µl/well triton lysisbuffer was added by the EL406.
as §4
The luminometer data was analysed as follows; the average of the triplicate wells was determined, and the average blank (DMSO) value was subtracted. […] For antagonist- and cytotoxicity experiments, PC20 values were determined instead, which was defined […]

Row | SMILES | LEC PPARδ (PPARδ) | LEC ESRE (ESRE)
1 | CCCCN(CC)C(=O)CCC(=O)N(CC)CCCC [EBSA, N,N′‐diethyl‐N,N′‐dibutylsuccindiamide] | – | –
2 | CCCCN(C)C(=O)CCC(=O)N(C)CCCC [MBSA, N,N′‐dimethyl‐N,N′‐dibutylsuccindiamide] | – | −2.4 Log M
3 | CN1CCCC1=O [NMP, N‐methyl‐2‐pyrrolidone, reference compound] |  | –

Further lines, with some results ahead:

Row | LEC PPARδ (PPARδ) | SMILES | LEC ESRE (ESRE)
4 | −2.3 Log M | CCCCN1CCCC1=O [NBP, N‐Butylpyrrolidinone, reference compound] | –
5 | – | CCCCN(CCCC)C(=O)CCC(=O)N(CCCC)CCCC [TBSA, N,N,N′,N′‐tetrabutylsuccindiamide] | –
